Laboratory results as given in ChEMBL document CHEMBL1121688 (J Med Chem, 1981).

Columns and labels:
Dopamine receptor = assay: Relative affinity for dopamine receptor by displacement of [3H]spiroperidol (2.2 nM) from (in vitro) dopamine binding sites in rat caudate nuclei
[1] = biological target: Muscarinic acetylcholine receptor; assay: Concentration required (in vitro) to displace 50% specific binding of [3H]clozapine to Muscarinic acetylcholine receptor in rat brain; assay type: tissue-based
[2] = Concentration required (in vitro) to displace 50% specific binding of [3H]clozapine to non-muscarinic sites in rat brain in presence of 1 uM atropine; assay type: tissue-based
[3] = Concentration required (in vitro) to displace 50% specific binding of [3H]clozapine to sites in rat brain

SMILES	IC50 (Dopamine receptor)	IC50 [1]	IC50 [2]	IC50 [3]
CN1CCN(C2=Nc3cc(Cl)ccc3N(C)c3ccccc32)CC1	32400 nM	12 nM	88 nM	–
CC1CCN(C2=Cc3ccccc3Cc3ccc(Cl)cc32)CC1	–	> 10000 nM	> 10000 nM	–
CC1CCN(C2=Cc3cc(Cl)ccc3Cc3ccccc32)CC1	> 10000 nM	> 10000 nM	> 10000 nM	–
CN1CCN(C2=Cc3cc(Cl)ccc3Cc3ccccc32)CC1	342 nM	670 nM	13 nM	–
CN1CCC(C2=Cc3cc(Cl)ccc3Cc3ccccc32)CC1	678 nM	622 nM	7 nM	–
CN1CCN(C2=Cc3ccccc3Cc3ccc(Cl)cc32)CC1	39 nM	290 nM	10 nM	–
CN1CCN(C2=Cc3ccccc3Cc3ccccc32)CC1	808 nM	610 nM	3.7 nM	–
CN1CCN(C2=Nc3cc(Cl)ccc3Nc3ccccc32)CC1 [CLOZAPINE]	–	–	13 nM	–
CN1CCN(C2=Nc3ccccc3Nc3ccc(Cl)cc32)CC1 [ISOCLOZAPINE]	758 nM	–	–	17 nM
CN1CCN(C2=Nc3cc(Cl)ccc3Oc3ccccc32)CC1 [ISOLOXAPINE]	2480 nM	49 nM	38 nM	–
